Experimental data: patent US12016340B2, “Synergistic antimicrobial formulation consisting of plant extract and lauric arginate” (KALAMAZOO HOLDINGS, INC., priority 2019, dated 2024)

Legend:
[1] = prior art; cited from earlier work
Z. bailii = assay: Antimicrobial efficacy of emulsions, growth measured by optical density at 600 nm; type: cell-based, Zygosaccharomyces bailii; settings: time course; 45.5 ppm thyme oil and 13 ppm LAE emulsion, or 13 ppm lauric arginate alone; FIG. 4
Procedure: Antimicrobial efficacy of emulsions of the invention is assessed by back diluting a mid-log phase, overnight culture of Z. bailii 1:100 into fresh acidified (pH 5) yeast peptone dextrose broth and adding the appropriate concentration of emulsion. Emulsions are prepared and tested in duplicate. Controls of lauric arginate are prepared in the same buffer with corn oil substituted for essential oil, at the same concentration. To test thyme oil alone, ethanol is used as a vehicle to solubilize the thyme oil in the microbiological media.
The antimicrobial efficacy of the formulations was evaluated against the relevant spoilage organism Z. bailii after 72 hours of incubation, as measured by optical density at 600 nm. See FIG. 3 which compares the growth of Z. bailii under differing conditions. Z. bailii was treated to emulsions comprising 52.5 ppm Thyme oil and 15 ppm lauric arginate (LAE); 52.5 ppm Thyme essential oil alone; or 15 ppm lauric arginate alone. […]
Additional studies were conducted in order to ascertain the temporal component of lauric arginate activity. […] Cells are treated to 45.5 ppm Thyme oil and 13 ppm lauric arginate (LAE) emulsion; 45.5 ppm Thyme essential oil alone; or 13 ppm lauric arginate alone, and the OD600 of the cultures were measured over time. […]

Question: Which “synergy with lauric arginate” value [1] does the source give for `Cc1ccc(C(C)C)c(O)c1` [thymol] here?
Answer: not to possess synergy

Question: For `CCCCCCCCCCCC(=O)N[C@@H](CCCN=C(N)N)C(=O)OCC` [lauric arginate, Lauric arginate], which “growth inhibition over time (OD600)” value (Z. bailii) is on record?
Answer: not inhibitory

Question: For `Cc1ccc(C(C)C)cc1O` [carvacrol], which “level at which synergy with lauric arginate was reported” value [1] is on record?
Answer: 60 ppm
